From patent US11434222B2, “MAGL inhibitors” (H. LUNDBECK A/S, priority 2020, dated 2022)
Like-named read-outs stand apart in the source and are kept apart here.

Columns and labels:
MAGL [1] = target: T1, MAGL (Homo sapiens, UniProt Q99685); test: In vitro competitive activity-based protein profiling (PC3 human cell membrane proteomes); type: biochemical
T1 construct: PC3 human cell membrane proteomes; endogenous in cells; host or cells: PC3 human cells (membrane proteome)
T1 sequence (Q99685 1-303): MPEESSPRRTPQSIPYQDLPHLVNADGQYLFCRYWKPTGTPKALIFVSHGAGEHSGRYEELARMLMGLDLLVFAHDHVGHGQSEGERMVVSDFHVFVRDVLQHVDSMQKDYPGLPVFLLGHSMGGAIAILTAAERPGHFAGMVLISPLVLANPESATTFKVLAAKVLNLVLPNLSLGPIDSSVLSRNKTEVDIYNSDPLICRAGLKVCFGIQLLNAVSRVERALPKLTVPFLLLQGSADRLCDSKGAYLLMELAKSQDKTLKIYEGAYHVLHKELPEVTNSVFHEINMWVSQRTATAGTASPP
Protocol: PC3 human cell membrane proteomes (50 µL, 2.0 mg/mL total protein concentration) were preincubated with varying concentrations of inhibitors at 37° C. After 30 min, the ABPP probe JW912-Bodipy (1.0 µL, 50 µM in DMSO) was added and the mixture was incubated for 30 min at room temperature. Reactions were quenched with SDS loading buffer (15 μL-4×) and run on SDS-PAGE. Following gel imaging, serine hydrolase activity was determined by measuring fluorescent intensity of gel bands corresponding to MAGL using ImageJ 1.43u software. Intensities were converted to percent enzyme activity by normalizing to DMSO controls. IC50 values were determined by fitting percent enzyme activities to a non-linear regression, 4-parameter, sigmoidal dose response function in Prism GraphPad.

MAGL [2] = target: T2, MAGL (Mus musculus, UniProt O35678); test: In vivo MAGL inhibition in mouse brain proteomes after oral gavage; settings: 5 mg/kg oral gavage, 4 h after administration, read-out: MAGL % inh. 5 mg/kg (mouse)
T2 construct: brain proteomes were prepared and analyzed according to previously established methods; from tissue; host or cells: brain of wild-type C57Bl/6J mice
T2 sequence (O35678 1-303): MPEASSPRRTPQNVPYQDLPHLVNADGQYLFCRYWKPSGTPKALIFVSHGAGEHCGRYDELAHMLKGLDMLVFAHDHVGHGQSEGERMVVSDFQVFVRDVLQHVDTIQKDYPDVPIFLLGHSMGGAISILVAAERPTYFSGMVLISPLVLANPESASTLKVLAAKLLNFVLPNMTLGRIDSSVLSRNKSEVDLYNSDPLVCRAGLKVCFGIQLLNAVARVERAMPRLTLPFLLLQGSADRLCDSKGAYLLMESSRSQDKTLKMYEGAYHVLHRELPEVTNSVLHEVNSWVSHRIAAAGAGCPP
Protocol: Inhibitors were administered to wild-type C57B1/6J by oral gavage in a vehicle of polyethylene glycol. Each animal was sacrificed 4 h following administration and brain proteomes were prepared and analyzed according to previously established methods (See Niphakis, M. J., et al. (2011) ACS Chem. Neurosci. and Long, J. Z., et al. Nat. Chem. Biol. 5:37-44).

[3] = Kinetic solubility in PBS; type: physicochemical; settings: aqueous buffer, kinetic from dmso stock
Protocol: The kinetic solubility of test articles was determined in PBS at pH 2.0 and pH 7.4 in duplicate. A stock solution of test compound in DMSO (10 mM) was incubated at RT for 2 hours with shaking at 1,100 RPM. The sample was then filtered using a vacuum manifold, diluted, and analyzed by LC-MS/MS. Chromatographic conditions: Phenomenex Synergi 4μ Hydro-PR 80A column (2.0×30 mm) coupled with pre-guard column; mobile phase=0.1% formic acid in acetonitrile and 0.1% formic acid in water; flowrate=0.65 mL/min; column temperature=40° C.; injection volume: 3 μL.
Mass conditions: Turbo spray ion source; ESI ionization model; MRM scan type; Collison gas=6 L/min; Curtain gas=30 L/min; Nebulize gas=50 L/min; Auxiliary gas=50 L/min; Temperature=500 degrees C.; Ion spray voltage=+5500 v (positive MRM).
The filtered solution was analyzed and quantified against a standard of known concentration in DMSO using UPLC coupled with mass spectral peak identification and quantitation. Solubility values of the test articles were calculated using Microsoft Excel as follows (DF is the dilution factor): […]

[4] = In vitro human hepatocyte stability; type: in vitro ADME; settings: cryopreserved human hepatocytes (pooled donor), human hepatocytes 0.5×10^6 cells/mL, read-out: Scaled-up unbound CLint
Protocol: The metabolic stability of test articles (1 μM) in commercially sourced, pooled donor, cryopreserved human hepatocytes (0.5×10^6 cells/mL) was determined in duplicate. The CLint reactions (250 μL) were initiated by addition of test compound. Aliquots (25 μL) were taken at 0, 15, 30, 45, 60, 90, 120 and 240 minutes and then protein crashed with ice-cold acetonitrile containing internal standard then centrifuged (3220 g for 25 minutes). Supernatant was used for LC-MS/MS analysis. The in vitro half-life (in vitro t1/2) was determined from the slope value: in vitro t1/2=−0.693/k. Conversion of the in vitro t1/2 (in min) into the scale-up unbound intrinsic clearance (Scaled-up unbound CLint, in mL/min/kg) was done using the following equation (mean of duplicate determinations), with data shown in Table 5: Scaled-up unbound CLint=kV/N×scaling factor. V=incubation volume (0.25 mL); N=number of hepatocytes per well ([…]). Scaling factors for in vivo intrinsic clearance prediction are listed below: […]

[5] = PBS pH 7.4, RT, read-out: pH 7.4 Solubility (kinetic)

## CN(C(=O)C1CC12CCN(C(=O)OC(C(F)(F)F)C(F)(F)F)CC2)c1cccnc1 (single isomer, unassigned) [Example 43, 1,1,1,3,3,3-hexafluoropropan-2-yl (R or S)-1-(methyl(pyridin-3-yl)carbamoyl)-6-azaspiro[2.5]octane-6-carboxylate]
MAGL [1]
  MAGL % inh. 1 µM (human PC3): 100%
MAGL [2]
  inhibition at 5 mg/kg: 100%
[3]; [5]
  solubility kinetic at 2 h: 233 µM

## O=C(Nc1ccc(-n2cccn2)nc1)C1CC12CCN(C(=O)OC(C(F)(F)F)C(F)(F)F)CC2 (single isomer, unassigned) [Example 29, 1,1,1,3,3,3-hexafluoropropan-2-yl (R or S)-1-((6-(1H-pyrazol-1-yl)pyridin-3-yl)carbamoyl)-6-azaspiro[2.5]octane-6-carboxylate]
[4]
  CLint scaled at 1 μM: 32.7 mL/min/kg
[3]; [5]
  solubility kinetic at 2 h: 8.63 µM

## Cc1ccc(NC(=O)[C@H]2CC23CCN(C(=O)OC(C(F)(F)F)C(F)(F)F)CC3)nn1 (single isomer, unassigned) [Example 106]
MAGL [2]
  inhibition at 5 mg/kg: 0%

## O=C(NCc1ccccc1)[C@H]1CC12CCN(C(=O)OC(C(F)(F)F)C(F)(F)F)CC2 (single isomer, unassigned) [Example 150]
[4]
  CLint scaled at 1 μM: 88.8 mL/min/kg

## O=C(Nc1cccnn1)[C@@H]1CC12CCN(C(=O)OC(C(F)(F)F)C(F)(F)F)CC2 [Example 5, 1,1,1,3,3,3-Hexafluoropropan-2-yl (R)-1-(pyridazin-3-ylcarbamoyl)-6-azaspiro[2.5]octane-6-carboxylate]
MAGL [2]
  inhibition at 5 mg/kg: 0%

## O=C(OC(C(F)(F)F)C(F)(F)F)N1CCC2(CC1)CC2C(=O)N1CCc2ncncc2C1 (single isomer, unassigned) [Example 60, 1,1,1,3,3,3-hexafluoropropan-2-yl (R or S)-1-(5,6,7,8-tetrahydropyrido[4,3-d]pyrimidine-6-carbonyl)-6-azaspiro[2.5]octane-6-carboxylate]
MAGL [1]
  MAGL % inh. 1 µM (human PC3): 100%
[3]; [5]
  solubility kinetic at 2 h: 259 µM

## Cc1ccc(NC(=O)C2CC23CCN(C(=O)OC(C(F)(F)F)C(F)(F)F)CC3)cn1 (single isomer, unassigned) [Example 81, 1,1,1,3,3,3-hexafluoropropan-2-yl (R or S)-1-((6-methylpyridin-3-yl)carbamoyl)-6-azaspiro[2.5]octane-6-carboxylate]
MAGL [2]
  inhibition at 5 mg/kg: 25%
[3]; [5]
  solubility kinetic at 2 h: 130 µM

## O=C(Nc1ccc(C(F)(F)F)nc1)C1CC12CCN(C(=O)OC(C(F)(F)F)C(F)(F)F)CC2 (single isomer, unassigned) [Example 78, 1,1,1,3,3,3-hexafluoropropan-2-yl (R or S)-1-((6-(trifluoromethyl)pyridin-3-yl)carbamoyl)-6-azaspiro[2.5]octane-6-carboxylate]
MAGL [1]
  MAGL % inh. 1 µM (human PC3): 100%
[3]; PBS pH 2.0, RT, read-out: pH 2 Solubility (kinetic)
  solubility kinetic at 2 h: 17 µM
[3]; [5]
  solubility kinetic at 2 h: 12.6 µM

## COc1ccc(NC(=O)[C@H]2CC23CCN(C(=O)OC(C(F)(F)F)C(F)(F)F)CC3)cn1 (single isomer, unassigned) [Example 37]
MAGL [2]
  inhibition at 5 mg/kg: 25%

## O=C(NCc1cccc(C(F)(F)F)n1)C1CC12CCN(C(=O)OC(C(F)(F)F)C(F)(F)F)CC2 (single isomer, unassigned) [Example 76, 1,1,1,3,3,3-hexafluoropropan-2-yl (R or S)-1-(((6-(trifluoromethyl)pyridin-2-yl)methyl)carbamoyl)-6-azaspiro[2.5]octane-6-carboxylate]
MAGL [1]
  MAGL % inh. 1 µM (human PC3): 100%
[3]; [5]
  solubility kinetic at 2 h: 1.33 µM

## CC1(CNC(=O)C2CC23CCN(C(=O)OC(C(F)(F)F)C(F)(F)F)CC3)CCOCC1 (single isomer, unassigned) [Example 168, 1,1,1,3,3,3-hexafluoropropan-2-yl (R or S)-1-(((4-methyltetrahydro-2H-pyran-4-yl)methyl)carbamoyl)-6-azaspiro[2.5]octane-6-carboxylate]
[4]
  CLint scaled at 1 μM: 61.4 mL/min/kg

## O=C(Nc1cnc(C(F)(F)F)nc1)C1CC12CCN(C(=O)OC(C(F)(F)F)C(F)(F)F)CC2 (single isomer, unassigned) [Example 99, 1,1,1,3,3,3-hexafluoropropan-2-yl (R or S)-1-((2-(trifluoromethyl)pyrimidin-5-yl)carbamoyl)-6-azaspiro[2.5]octane-6-carboxylate]
MAGL [1]
  MAGL % inh. 1 µM (human PC3): 100%
[3]; [5]
  solubility kinetic at 2 h: 28.5 µM

## Cc1ncccc1NC(=O)C1CC12CCN(C(=O)OC(C(F)(F)F)C(F)(F)F)CC2 (single isomer, unassigned) [Example 69, 1,1,1,3,3,3-hexafluoropropan-2-yl (R or S)-1-((2-methylpyridin-3-yl)carbamoyl)-6-azaspiro[2.5]octane-6-carboxylate]
MAGL [1]
  MAGL % inh. 1 µM (human PC3): 100%

## O=C(OC(C(F)(F)F)C(F)(F)F)N1CCC2(CC1)CC2C(=O)N1CCc2cnc(C(F)(F)F)nc2C1 (single isomer, unassigned) [Example 58, 1,1,1,3,3,3-hexafluoropropan-2-yl (R or S)-1-(2-(trifluoromethyl)-5,6,7,8-tetrahydropyrido[3,4-d]pyrimidine-7-carbonyl)-6-azaspiro[2.5]octane-6-carboxylate]
MAGL [1]
  MAGL % inh. 1 µM (human PC3): 100%

## Cc1ncc(NC(=O)C2CC23CCN(C(=O)OC(C(F)(F)F)C(F)(F)F)CC3)cn1 (single isomer, unassigned) [Example 103, 1,1,1,3,3,3-hexafluoropropan-2-yl (R or S)-1-((2-methylpyrimidin-5-yl)carbamoyl)-6-azaspiro[2.5]octane-6-carboxylate]
MAGL [2]
  inhibition at 5 mg/kg: 50%

## O=C(Nc1ccnnc1)C1CC12CCN(C(=O)OC(C(F)(F)F)C(F)(F)F)CC2 (single isomer, unassigned) [Example 108, 1,1,1,3,3,3-hexafluoropropan-2-yl (R or S)-1-(pyridazin-4-ylcarbamoyl)-6-azaspiro[2.5]octane-6-carboxylate]
MAGL [2]
  inhibition at 5 mg/kg: 75%

## CS(=O)(=O)Nc1ccc(NC(=O)C2CC23CCN(C(=O)OC(C(F)(F)F)C(F)(F)F)CC3)cn1 (single isomer, unassigned) [Example 181, 1,1,1,3,3,3-hexafluoropropan-2-yl (R or S)-1-((6-(methylsulfonamido)pyridin-3-yl)carbamoyl)-6-azaspiro[2.5]octane-6-carboxylate]
[4]
  CLint scaled at 1 μM: 1.94 mL/min/kg
[3]; [5]
  solubility kinetic at 2 h: 296 µM

## COc1ccc(NC(=O)[C@@H]2CC23CCN(C(=O)OC(C(F)(F)F)C(F)(F)F)CC3)cn1 (single isomer, unassigned) [Example 36]
MAGL [2]
  inhibition at 5 mg/kg: 0%
